Results reported in patent US11466326B2, “Methods and kit for diagnosing and treating colorectal cancer based on AvrA and Wnt1” (The Board of Trustees of the University of Illinois, priority 2018, dated 2022).
Peptide text beside a SMILES is read from it. * marks the point of attachment. Cbz = O=C(OCc1ccccc1)*

Legend:
Wnt1 protein [1] = experiment: Wnt1 protein level after Salmonella infection in the presence of a proteasome inhibitor; type: cell-based, human; details: in the presence of MG132; compared with control cells without treatment
Experimental: (§1) Western Blot Analysis of Cell Line Proteins. Infected or control cells were rinsed twice in ice-cold HESS and lysed in protein loading buffer (50 mM Tris, pH 6.8, 100 mM dithiothreitol, 2% SDS, 0.1% bromophenol blue, and 10% glycerol). Equal amounts of protein were separated by SDS-polyacrylamide gel electrophoresis, transferred to nitrocellulose membranes, and analyzed by immunoblotting with anti-Wnt1 and anti-β-actin antibodies (Bioworld). The signals were visualized and quantitated using LI-COR Odyssey v3.0 software after probing the membranes with an infrared-conjugated secondary antibody.

Wnt1 protein [2] = experiment: Wnt1 protein level by immunoblot after LPS treatment of human epithelial cells; type: cell-based; details: cells treated with LPS, total cell lysates
Experimental: as §1

Molecule | Wnt1 protein levels after Salmonella infection (Wnt1 protein [1]) | change in Wnt1 expression (decrease as seen with Salmonella) (Wnt1 protein [2])
CC(C)C[C@@H](C=O)NC(=O)[C@H](CC(C)C)NC(=O)[C@H](CC(C)C)NC(=O)OCc1ccccc1 [MG132] (Cbz-Leu-Leu-Leu-aldehyde) | stabilized | –
lipopolysaccharide [LPS] | – | not observed
